Results from patent publication US5466717A, “Halogenated 4'-methoxyacetophenones as microbicides and preservatives” (Buckman Laboratories Int'l, Inc., priority 1993, dated 1995).
Where two headings read alike, the source gives them in different places.

Tests used:
Format in all cases: cell-based
[1] = tested on: Pseudomonas aeruginosa, Enterobacter serogenes and Bacillus subtilus; assay: Preservation of acrylic latex paint, 9 week multiple challenge test (Table 1); set-up: key: 0: no growth was observed; +: less than 10 colonies were observed; ++: 10 or more colonies were observed
Experimental: The preservative effectiveness of compounds 1 and 2 was determined in a freshly prepared water-based paint formulated with titanium dioxide and calcium carbonate as pigments, an acrylic resin emulsion, dispersants, and hydroxyethyl cellulose as a thickener. The pH of this paint was approximately 9.0. […] One hundred gram samples of the test paints were challenged initially and at the end of the third and sixth weeks in a three-challenge, nine-week test with 1.0 milliliter of […] containing Pseudomonas aeruginosa, Enterobacter serogenes and Bacillus subtilus at a level of approximately 1.5×10^6 organisms per milliliter. After vigorous shaking, the inoculated paint was incubated at 28° C. Growth in system was monitored by streaking a sample of each test paint onto a nutrient agar on plates at intervals of 1 day, 2 days, 3 days, 7 days, and 21 days after each challenge. The streaked plates were incubated at 37° C. and examined for bacterial growth after 24 hours (challenge 1). A second sample of the same inoculated paint was rechallenged at the end of 21 days (challenge 2) and again at the end of 42 days (challenge 3).

Pseudomonas aeruginosa = assay: Pulp substrate method, percent kill of P. aeruginosa (Table 2)
Experimental: Compounds 1 and 2 were tested by the pulp substrate method described in detail in U.S. Pat. No. 2,881,070, column 5, line 12--column 6, line 53. The disclosure of U.S. Pat. No. 2,881,070 is specifically incorporated here by reference. […] The tests utilized Enterobacter aerogenes and Pseudomonas aeruginosa in pulp substrates that had been buffered at pH 7.0 and 8.0.

P. aeruginosa = assay: Basal salts method, percentage kill of P. aeruginosa (Table 5); conditions: Pseudomonas aeruginosa
Experimental: Compounds 1 and 2 were tested against bacterial growth by the basal salts method described in U.S. Pat. No. 2,881,070, Column 5, line 12--Column 6, line 53. The disclosure of U.S. Patent No. 2,881,070 is specifically incorporated here by reference.

[2] = tested on: Desulfovibrio desulfuricans; assay: Effectiveness against sulfate reducing bacterium, Method API Rp 38 (Table 7); set-up: key: 4: excellent; 3: good; 2: poor; 1: very poor, scant, questionable; 0: no growth; conditions: pH 7.0, duplicates
Experimental: The effectiveness of compounds 1 and 2 against Desulfovibrio desulfuricans,a sulfate reducing bacterium, was determined using the method recommended by the American Petroleum Institute (Method API Rp 38). The composition of the sulfate-reducer medium for the bacteriostatic test is as follows: The ingredients are dissolved by gentle heating with constant stirring. […] If necessary, the medium is then filtered through Whatman No. 1 or No. 2 filter paper. Following filtration, the medium is autoclaved at 15 lb steam pressure for […]. After autoclaving, the medium is allowed to cool slightly and the iron salt, Fe(SO4)2 (NH4)2.6H2 O, is added. The pH is then checked and readjusted if necessary. The medium is now cooled to room temperature as rapidly as possible, without agitation. After cooling, the medium is inoculated from the third successive 24-hour transfer of an actively growing culture (a liquid culture which turns black within 24 hours after inoculation) of sulfate-reducing bacteria. Ten milliliters of inoculum are added to each liter of medium. From stock solutions of the chemical to be screened, sufficient amounts of the compounds are added to 1- or 2-oz clear bottles so that the desired concentrations of chemicals are present when the containers are filled. The amount of stock solution added cannot exceed 10 percent of the volume of the test bottle. After addition of the chemical, the bottles are completely filled with the inoculated medium. The bottles are then capped with plastic caps containing cork and aluminum foil or Teflon liners and are incubated at 30°±2° C. All work is done in duplicate with at least three controls for each series. The controls consist of bottles filled with inoculated medium only. Growth of sulfate-reducing bacteria in the bottles is indicated by an intense blackening of the medium, whereas containers having sufficient chemical to inhibit growth will remain clear. Bottles with no sulfate-reducing bacteria growth are observed for a period of 28 days after the controls have blackened. The results were recorded using a +/0 scale where "+" indicates growth and "0" indicates no growth.

[3] = pH 7.0, read-out: % Kill of P. aeroginosa
[4] = pH 8.0, read-out: % Kill of P. aeroginosa

`COc1ccc(C(=O)C(Br)Br)cc1Br` [Compound 2, 2,2,3'-tribromo-4'-methoxyacetophenone] was tested, and the “Observation of growth 21 days after challenge” value (“Observation of growth 21 days” for short) ([1]; 100 ppm w/w, challenge 1) was “++ (10 or more colonies were observed)”, the “Observation of growth 21 days” value ([1]; 100 ppm w/w, challenge 2) was “++ (10 or more colonies were observed)” and the “Observation of growth 21 days” value ([1]; 100 ppm w/w, challenge 3) was “++ (10 or more colonies were observed)”. The “Observation of growth 21 days” value ([1]; 250 ppm w/w, challenge 1) was 0, the “Observation of growth 21 days” value ([1]; 250 ppm w/w, challenge 2) was 0 and the “Observation of growth 21 days” value ([1]; 250 ppm w/w, challenge 3) was 0. For the same compound, the “Observation of growth 21 days” value ([1]; 500 ppm w/w, challenge 1) was 0, the “Observation of growth 21 days” value ([1]; 500 ppm w/w, challenge 2) was 0 and the “Observation of growth 21 days” value ([1]; 500 ppm w/w, challenge 3) was 0. The “Observation of growth 21 days” value ([1]; 2500 ppm w/w, challenge 1) was 0, the “Observation of growth 21 days” value ([1]; 2500 ppm w/w, challenge 2) was 0 and the “Observation of growth 21 days” value ([1]; 2500 ppm w/w, challenge 3) was 0. For the same compound, the “Observation of growth 21 days” value ([1]; 5000 ppm w/w, challenge 1) was 0, the “Observation of growth 21 days” value ([1]; 5000 ppm w/w, challenge 2) was 0 and the “Observation of growth 21 days” value ([1]; 5000 ppm w/w, challenge 3) was 0. The killing at 1 ppm (Pseudomonas aeruginosa; [3]) was 15%, the killing at 1 ppm (Pseudomonas aeruginosa; [4]) was 0% and the killing at 2 ppm (Pseudomonas aeruginosa; [3]) was 0%. For the same compound, the killing at 2 ppm (Pseudomonas aeruginosa; [4]) was 54%, the killing at 4 ppm (Pseudomonas aeruginosa; [3]) was 36% and the killing at 4 ppm (Pseudomonas aeruginosa; [4]) was 25%. For the same compound, the killing at 8 ppm (Pseudomonas aeruginosa; [3]) was 17%, the killing at 8 ppm (Pseudomonas aeruginosa; [4]) was 71% and the killing at 10 ppm (Pseudomonas aeruginosa; [3]) was 80%. It also gave a killing at 10 ppm (Pseudomonas aeruginosa; [4]) of 86%, a killing at 15 ppm (Pseudomonas aeruginosa; [3]) of 97% and a killing at 15 ppm (Pseudomonas aeruginosa; [4]) of 94%. For the same compound, the killing at 20 ppm (Pseudomonas aeruginosa; [3]) was 98%, the killing at 20 ppm (Pseudomonas aeruginosa; [4]) was 99% and the killing at 25 ppm (Pseudomonas aeruginosa; [3]) was 97%. For the same compound, the killing at 25 ppm (Pseudomonas aeruginosa; [4]) was 99%, the killing at 10 ppm (P. aeruginosa; pH 6.0) was 99.8% and the killing at 10 ppm (P. aeruginosa; pH 8.0) was 94%. The killing at 20 ppm (P. aeruginosa; pH 6.0) was 100%, the killing at 20 ppm (P. aeruginosa; pH 8.0) was 100% and the killing at 30 ppm (P. aeruginosa; pH 8.0) was 100%. For the same compound, the “growth of Desulfovibrio desulfuricans” value ([2]; 4 ppm) was 0, the “growth of Desulfovibrio desulfuricans” value ([2]; 8 ppm) was 0 and the “growth of Desulfovibrio desulfuricans” value ([2]; 10 ppm) was 0. For the same compound, the “growth of Desulfovibrio desulfuricans” value ([2]; 15 ppm) was 0 and the “growth of Desulfovibrio desulfuricans” value ([2]; 20 ppm) was 0.
With `COc1ccc(C(=O)CBr)cc1Br` [Compound 1, 2,3'-dibromo-4'-methoxyacetophenone] the “Observation of growth 21 days” value ([1]; 100 ppm w/w, challenge 1) was “++ (10 or more colonies were observed)”, the “Observation of growth 21 days” value ([1]; 100 ppm w/w, challenge 2) was “++ (10 or more colonies were observed)” and the “Observation of growth 21 days” value ([1]; 100 ppm w/w, challenge 3) was “++ (10 or more colonies were observed)”. The “Observation of growth 21 days” value ([1]; 250 ppm w/w, challenge 1) was 0, the “Observation of growth 21 days” value ([1]; 250 ppm w/w, challenge 2) was 0 and the “Observation of growth 21 days” value ([1]; 250 ppm w/w, challenge 3) was 0. For the same compound, the “Observation of growth 21 days” value ([1]; 500 ppm w/w, challenge 1) was 0, the “Observation of growth 21 days” value ([1]; 500 ppm w/w, challenge 2) was 0 and the “Observation of growth 21 days” value ([1]; 500 ppm w/w, challenge 3) was 0. For the same compound, the “Observation of growth 21 days” value ([1]; 2500 ppm w/w, challenge 1) was 0, the “Observation of growth 21 days” value ([1]; 2500 ppm w/w, challenge 2) was 0 and the “Observation of growth 21 days” value ([1]; 2500 ppm w/w, challenge 3) was 0. For the same compound, the “Observation of growth 21 days” value ([1]; 5000 ppm w/w, challenge 1) was 0, the “Observation of growth 21 days” value ([1]; 5000 ppm w/w, challenge 2) was 0 and the “Observation of growth 21 days” value ([1]; 5000 ppm w/w, challenge 3) was 0. The killing at 1 ppm (Pseudomonas aeruginosa; [3]) was 6%, the killing at 1 ppm (Pseudomonas aeruginosa; [4]) was 85% and the killing at 2 ppm (Pseudomonas aeruginosa; [3]) was 7%. For the same compound, the killing at 2 ppm (Pseudomonas aeruginosa; [4]) was 75%, the killing at 4 ppm (Pseudomonas aeruginosa; [3]) was 43% and the killing at 4 ppm (Pseudomonas aeruginosa; [4]) was 89%. For the same compound, the killing at 8 ppm (Pseudomonas aeruginosa; [3]) was 67%, the killing at 8 ppm (Pseudomonas aeruginosa; [4]) was 70% and the killing at 10 ppm (Pseudomonas aeruginosa; [3]) was 93%. For the same compound, the killing at 10 ppm (Pseudomonas aeruginosa; [4]) was 79%, the killing at 15 ppm (Pseudomonas aeruginosa; [3]) was 94% and the killing at 15 ppm (Pseudomonas aeruginosa; [4]) was 94%. The killing at 20 ppm (Pseudomonas aeruginosa; [3]) was 98%, the killing at 20 ppm (Pseudomonas aeruginosa; [4]) was 89% and the killing at 25 ppm (Pseudomonas aeruginosa; [3]) was 97%. It also gave a killing at 25 ppm (Pseudomonas aeruginosa; [4]) of 99%, a killing at 10 ppm (P. aeruginosa; pH 6.0) of 100% and a killing at 10 ppm (P. aeruginosa; pH 8.0) of 98%. It also gave a killing at 20 ppm (P. aeruginosa; pH 6.0) of 100%, a killing at 20 ppm (P. aeruginosa; pH 8.0) of 99% and a killing at 30 ppm (P. aeruginosa; pH 6.0) of 100%. For the same compound, the killing at 30 ppm (P. aeruginosa; pH 8.0) was 99.6%, the “growth of Desulfovibrio desulfuricans” value ([2]; 4 ppm) was 0 and the “growth of Desulfovibrio desulfuricans” value ([2]; 10 ppm) was 0. The “growth of Desulfovibrio desulfuricans” value ([2]; 15 ppm) was 0 and the “growth of Desulfovibrio desulfuricans” value ([2]; 20 ppm) was 0.
